These results are taken from publication PMC7997578, “Design, Synthesis, Dynamic Docking, Biochemical Characterization, and in Vivo Pharmacokinetics Studies of Novel Topoisomerase II Poisons with Promising Antiproliferative Activity” (Journal of Medicinal Chemistry, 2020).

For data set [1], the system named is DU145 cells. Set-up: method as in PMID 29077404. As to conditions: etoposide and merbarone measured in ref 39, read-out: DU145 antiproliferative activity IC50; cited from earlier work.
The subject of the next data set is human topoII. More on the design: method as in PMID 29077404. As to conditions: earlier values of the same authors; read-out: IC50 topoII blocker; cited from earlier work.
For data set [2], the system named is HeLa cells. More on the design: method as in PMID 29077404. The following applies: etoposide and merbarone measured in ref 39, read-out: HeLa antiproliferative activity IC50; cited from earlier work.
The target in the next data set is T1, human topoIIα (Homo sapiens, UniProt P11388).
T1 construct: purchased Inspiralis
The data set is described as follows: topoII decatenation assay (Inspiralis). As to conditions: human topoIIα decatenation assay; mean ± SD of two independent experiments; read-out: IC50. It counts as biochemical. As for the experimental part:
We measured the inhibitor activity of our new compounds against human topoIIα, using a topoII decatenation assay (Table 1).
The activity of topoIIα was measured using a decatenation assay (Inspiralis) following the manufacturer’s instructions. Compounds were dissolved in DMSO and used at a concentration ranging from 200 to 1 μM. Final DMSO concentration in the assay was ≤1%. Reaction mixtures were incubated for 30 min at 37 °C and terminated with STEB buffer (40% (w/v) sucrose, 100 mM Tris-HCl, pH 8, 1 mM EDTA, 0.5 mg/mL bromophenol blue). Reaction products were resolved by electrophoresis in 1% agarose gels containing SYBR Safe DNA stain (Invitrogen), scanned, and quantified using the ChemiDoc system (BioRad). IC50 values were obtained with GraphPad Prism software (version 5.03) using the band intensities of the dose–response gels. Values are reported as the mean ± SD of two independent experiments.

The nature of data set [3]: aqueous kinetic solubility. It counts as physicochemical. The following applies: PBS, pH 7.4, PBS pH 7.4, target 250 µM, 2.5% DMSO, 25°C. As for the experimental part:
1. In vitro m etabolic stabili ty
In vitro microsomial stability. 10mM DMSO stock solution of test compound was pre-incubated at 37 °C for 15min with mouse liver microsomes added 0.1M Tris-HCl buffer (pH 7.4). The final concentration was 4.6µM. After pre -incubation, the co-factors (NADPH, G6P, G6PDH and MgCl2 pre-dissolved in 0.1M Tris-HCl) were added to the incubation mixture and the incubation was continued at 37 °C for 1h. At each time point (0, 5, 15, 30, 60min), 30µL of incubation mixture was diluted with 200µL cold CH 3CN spiked with 200n M of internal standard, followed by centrifugation at 3500g for 15min. The supernatant was further diluted with H2O (1:1) for analysis. The concentration of test compound was quantified by LC/MS-MS on a Waters ACQUITY UPLC/M S TQD system consisting of a TQD (Triple Quadrupole Detector) Mass Spectrometer equipped with an Electrospray Ionization interface. The analyses were run on an ACQUITY UPLC BEH C18 (50x2.1mmID, particle size 1.7µm) with a VanGuard BEH C18 pre -column (5x2.1mmID, particle size 1.7µm) at 40°C, using 0.1% HCOOH in H 2O (A) and 0.1% HCOOH in CH 3CN (B) as mobile phase. Electrospray ionization (ESI) was app lied in positive mode . The percentage of test compound remaining at each time point relative to t=0 was calculated. The half -lives (t½) were determined by an one-phase decay equation using a non -linear regression of compound concentration versus time.
In vitro Plasma Stability. 10mM DMSO stock solution of test compound was diluted 50 -fold with DMSO-H2O (1:1) and incubated at 37 °C for 2 h with mouse plasma added 5% DMSO (pre-heated at 37 °C for 10 min). The final concentration was 2µM. At each time point (0, 5, 15, 30, 60, 120min), 50 µL of incubation mixture was diluted with 200µL cold CH3CN spiked with 200nM of internal standard, followed by centrifugation at 3500g for 20min. The supernatant was further diluted with H2O (1:1) for analysis. The concentration of test compound was quantified by LC/MS-MS on a Waters ACQUITY UPLC/MS TQD system consisting of a TQD (Triple Quadrupole Detector) Mass Spectrometer equipped with an Electrospray Ionization interface. The analyses were run on an ACQUITY UPLC BEH C18 (50x2.1mmID, particle size 1.7µm) with a VanGuard BEH C18 pre - column (5x2.1mmID, particle size 1.7µm) at 40°C, using 0.1% HCOOH in H2O (A) and 0.1% HCOOH in CH3CN (B) as mobile phase. Electrospray ionization (ESI) was applied in positive mode.
The response factors, calculated on the basis of the internal standard peak area, were plotted over time. When possible, response vs. time profiles were fitted with Prism (GraphPad Software, Inc., USA) to estimate compounds half-life in plasma.
2. Aqueous ki netic solu bili ty
The aqueous kinetic solubility was determined from a 10mM DMSO stock solution of test compound in Phosphate Buffered Saline (PBS) at pH 7.4. The study was performed by incubation of an aliquot of 10mM DMSO stock solution in PBS (pH 7.4) at a target concentration of 250µM resulting in a final concentration of 2.5% DMSO. The incubation was carried out under shaking at 25°C for 24h followed by centrifugation at 21.100g for 30min. The supernatant was analyzed by UPLC/MS for the quantification of dissolved compound by UV at a specific wavelength (215nm).
The analyses were performed on a Waters ACQUITY UPLC/MS SQD system consisting of a SQD (Single Quadrupole Detector) Mass Spectrometer equipped with Electrospray Ionization interface.
The analyses were run on an ACQUITY UPLC BEH C18 column (50x2.1mmID, particle size 1.7µm) with a VanGuard BEH C18 pre-column (5x2.1mmID, particle size 1.7µm), using 10mM NH4OAc in H2O at pH 5 adjusted with AcOH (A) and 10mM NH4OAc in MeCN-H2O (95:5) at pH 5 (B) as […]

The subject of data set [4] is DU145 cells. The data set is described as follows: cell viability MTT assay, DU145. It counts as cell-based, human. As to conditions: mean ± SD of two experiments, read-out: DU145 antiproliferative activity IC50. As for the experimental part:
(§1) The antiproliferative activity of all compounds was evaluated in (i) DU145, an androgen-independent prostate cancer cell line; (ii) HeLa, a cervical cancer cell line; and (iii) A549, a lung adenocarcinoma cell line (Table 1). […] Undoubtedly, this preliminary cytotoxicity data will need further characterization, also in relation to the in vitro activity of these compounds.
(§2) Human cancer cell lines A549 (lung adenocarcinoma, ATCC CCL-185), DU-145 (androgen-independent prostate cancer, ATCC HTB-81), and HeLa (cervical carcinoma, ATCC CCL-2) were obtained from ATCC. Cells were routinely grown in minimal essential medium containing Eagle’s salts and L-glutamine supplemented with 10% heat-inactivated FBS in a humidified atmosphere of 5% CO2 at 37 °C. To assess the antiproliferative activity of the compounds, cells were seeded at a density of 2500 cells/well (HeLa) or 5000 cells/well (A549, DU-145) in 96-well plates, and cell viability was measured using the MTT assay as described previously.[39] Values are reported as the mean ± SD of two independent experiments.

For data set [5], the system named is A549 cells. As to the kind of experiment: cell viability MTT assay, A549. It counts as cell-based, human. The following applies: mean ± SD of two experiments, read-out: A549 antiproliferative activity IC50. The protocol:
as §1, §2

Data set [6] deals with HeLa cells. As to the kind of experiment: cell viability MTT assay, HeLa. It counts as cell-based, human. As to conditions: HeLa cervical cancer cells, mean ± SD of two experiments, read-out: HeLa antiproliferative activity IC50. The protocol:
as §1, §2
(In general: Tetrazolium assays rely on reduction of a dye to a coloured formazan, in cell work by metabolically active cells.)

Data set [7] deals with T2, topoII/DNA cleavage complex (Homo sapiens, UniProt P11388).
T2 construct: purchased Inspiralis
The data set is described as follows: topoisomerase II cleavage complex assay. The following applies: 200 μM compound, 1 U topoII, plasmid DNA. It counts as biochemical. The protocol: Figure 2 Poison activity of the hybrid compounds. Agarose gel electrophoresis of plasmid DNA incubated in the absence (no enzyme) or presence of 1 U of topoII containing either 1% DMSO as control vehicle (no enzyme and topoII lanes) or 200 μM compound. Labels are shown above each lane. Numbers at the bottom correspond to the normalized intensity of the linear form (FIII). Plasmid forms are indicated by the arrow-points on the right: supercoiled (FI), nicked (FII), and linear (FIII).
Poison activity of the compounds was evaluated using a cleavage complex assay (Inspiralis) as described previously.[60] Compounds were tested at a fixed concentration of 200 μM in the presence of 1 U of topoisomerase II and 500 ng of […] plasmid at 37 °C for 6 min. Final DMSO concentration in the assay was 1%. Reaction products were subjected to electrophoresis in a 1% agarose gel, stained with SYBR Safe DNA stain, and DNA bands were visualized and quantified as described above.

Data set [8] concerns A549 cells. More on the design: method as in PMID 29077404. The following applies: etoposide and merbarone measured in ref 39, read-out: A549 antiproliferative activity IC50; cited from earlier work.
[9] abbreviates: Homo sapiens, DU-145, DU145 prostate cancer cells.
The mark [10] stands for this setting: Homo sapiens, A549, A549 lung adenocarcinoma cells.

In brackets after ≈: the same amount, converted by molar mass. Where two headings read alike, the source gives them in different places.

T1 sequence (P11388 whole entry): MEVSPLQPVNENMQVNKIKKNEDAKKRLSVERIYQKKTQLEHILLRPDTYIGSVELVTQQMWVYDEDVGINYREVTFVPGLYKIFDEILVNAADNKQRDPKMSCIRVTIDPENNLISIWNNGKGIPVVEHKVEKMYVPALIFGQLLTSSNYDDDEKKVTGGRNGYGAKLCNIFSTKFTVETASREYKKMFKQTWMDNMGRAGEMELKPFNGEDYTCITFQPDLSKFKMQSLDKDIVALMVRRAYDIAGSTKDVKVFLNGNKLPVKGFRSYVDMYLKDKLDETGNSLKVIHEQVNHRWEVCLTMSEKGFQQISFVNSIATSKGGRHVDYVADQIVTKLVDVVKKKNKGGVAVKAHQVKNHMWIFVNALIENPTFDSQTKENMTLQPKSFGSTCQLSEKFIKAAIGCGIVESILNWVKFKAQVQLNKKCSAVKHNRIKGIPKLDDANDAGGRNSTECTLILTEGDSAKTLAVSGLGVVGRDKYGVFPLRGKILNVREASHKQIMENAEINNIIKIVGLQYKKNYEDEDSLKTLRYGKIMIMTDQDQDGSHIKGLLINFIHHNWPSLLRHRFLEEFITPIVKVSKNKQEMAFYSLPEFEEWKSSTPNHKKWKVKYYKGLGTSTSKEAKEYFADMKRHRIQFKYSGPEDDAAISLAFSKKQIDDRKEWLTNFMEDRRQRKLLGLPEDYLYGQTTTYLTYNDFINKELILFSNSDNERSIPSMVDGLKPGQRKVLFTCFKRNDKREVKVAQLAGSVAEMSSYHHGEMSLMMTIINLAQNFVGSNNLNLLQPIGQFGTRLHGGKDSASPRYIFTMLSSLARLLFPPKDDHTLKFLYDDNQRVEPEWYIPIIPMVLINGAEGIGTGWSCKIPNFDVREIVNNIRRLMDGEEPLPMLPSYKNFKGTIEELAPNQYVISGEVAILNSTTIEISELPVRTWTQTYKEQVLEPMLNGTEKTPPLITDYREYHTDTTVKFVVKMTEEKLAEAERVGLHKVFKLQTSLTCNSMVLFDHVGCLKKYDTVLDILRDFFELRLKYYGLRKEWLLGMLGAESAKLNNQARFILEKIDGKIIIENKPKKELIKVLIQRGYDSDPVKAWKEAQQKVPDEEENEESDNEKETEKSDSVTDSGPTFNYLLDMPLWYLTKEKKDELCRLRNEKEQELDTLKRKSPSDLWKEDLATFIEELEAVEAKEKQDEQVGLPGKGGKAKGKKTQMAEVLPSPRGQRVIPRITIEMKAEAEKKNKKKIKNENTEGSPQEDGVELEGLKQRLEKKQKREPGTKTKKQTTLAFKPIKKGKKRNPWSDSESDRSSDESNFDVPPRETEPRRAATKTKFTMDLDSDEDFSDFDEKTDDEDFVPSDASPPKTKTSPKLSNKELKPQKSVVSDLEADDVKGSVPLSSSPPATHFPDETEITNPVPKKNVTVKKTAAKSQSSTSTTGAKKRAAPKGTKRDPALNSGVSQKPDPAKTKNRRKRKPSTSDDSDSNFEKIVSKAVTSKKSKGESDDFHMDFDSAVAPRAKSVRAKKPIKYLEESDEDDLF
T2 sequence (P11388 whole entry, one chain of several): as the sequence (P11388 whole entry) above

`O=C1NC(=S)NC(=O)C1C(=O)Nc1ccccc1` [merbarone, 6-hydroxy-4-oxo-N-phenyl-2-thioxo-1H-pyrimidine-5-carboxamide]: the IC50 in the data set on DU145 cells [1] is 18.9 ± 2 µM; in the data set with human topoII it was 120 ± 12 µM; with HeLa cells [2], 62.3 ± 6.4 µM; at human topoIIα it was 26 ± 4.7 µM.
`COc1cccc(NC(=O)c2c(O)n(-c3ccccc3)c(=S)n(-c3ccccc3)c2=O)c1` [ARN16267] displayed a solubility (kinetic) at 24 h in data set [3] of 236 µM (≈ 105 µg/mL). Besides, the IC50 with DU145 cells [4] (setting [9]) is 7.6 ± 0.8 µM; with A549 cells [5] (setting [10]), 4.7 ± 0.3 µM; in the data set with human topoII, 30 ± 6 µM; on human topoIIα, 16.1 ± 2.4 µM; in the data set with HeLa cells [6] (Homo sapiens, HeLa), 5.5 ± 1.3 µM.
For the molecule `O=C(Nc1cccc(C(F)F)c1)c1c(O)n(-c2ccccc2)c(=S)n(-c2ccccc2)c1=O` [3i, N-(3-(Difluoromethyl)phenyl)-6-hydroxy-4-oxo-1,3-diphenyl-2-thioxo-1,2,3,4-tetrahydropyrimidine-5-carboxamide], the “mode of action in cleavage complex formation assay” value in data set [7] is on record as “confirmed to be poisons”. The same molecule came in with a kinetic solubility at 24 h in [3] of over 200 µM. Besides, the IC50 was determined as 7.8 ± 0.2 µM with DU145 cells [4] (setting [9]); 4.4 ± 0.2 µM with A549 cells [5] (setting [10]); 11.4 ± 2.4 µM on human topoIIα; 4.9 ± 1.4 µM with HeLa cells [6] (Homo sapiens, HeLa).
As to `O=C(Nc1cccc(OC(F)F)c1)c1c(O)n(-c2ccccc2)c(=S)n(-c2ccccc2)c1=O` [3g, N-(3-(Difluoromethoxy)phenyl)-6-hydroxy-4-oxo-1,3-diphenyl-2-thioxo-1,2,3,4-tetrahydropyrimidine-5-carboxamide], the “mode of action in cleavage complex formation assay” value in data set [7] is reported as “confirmed to be poisons”. The molecule further showed a solubility (kinetic) at 24 h in data set [3] of over 200 µM. The half-inhibitory concentration (IC50) with DU145 cells [4] (setting [9]) came to 6.5 ± 0.9 µM; in the data set on A549 cells [5] (setting [10]) it was 4.8 ± 0.4 µM; at human topoIIα it was 10.2 ± 1.9 µM; in the data set on HeLa cells [6] (Homo sapiens, HeLa) it was 6.4 ± 0.5 µM.
Take `COc1cc([C@@H]2c3cc4c(cc3[C@@H](O[C@@H]3O[C@@H]5CO[C@@H](C)O[C@H]5[C@H](O)[C@H]3O)[C@H]3COC(=O)[C@H]23)OCO4)cc(OC)c1O` [etoposide]: the 50% inhibitory concentration (IC50) in the data set with DU145 cells [1] is 1 ± 0.8 µM; in the data set with A549 cells [8], 1.3 ± 0.1 µM; with human topoII it was […]; in the data set on HeLa cells [2], 2.4 ± 0.9 µM.
In turn, `CC(C)Oc1cccc(NC(=O)c2c(O)n(-c3ccccc3)c(=S)n(-c3ccccc3)c2=O)c1` [3b, 6-Hydroxy-N-(3-isopropoxyphenyl)-4-oxo-1,3-diphenyl-2-thioxo-1,2,3,4-tetrahydropyrimidine-5-carboxamide] showed a solubility (kinetic) at 24 h in [3] of 34 µM (≈ 16.1 µg/mL). The IC50 came out at 5.5 ± 0.1 µM with DU145 cells [4] (setting [9]); 3 ± 0.3 µM in the data set on A549 cells [5] (setting [10]); 9.7 ± 2.6 µM on human topoIIα; 4.2 ± 0.3 µM in the data set with HeLa cells [6] (Homo sapiens, HeLa).
As for `COc1cccc(CCNC(=O)c2c(O)n(-c3ccccc3)c(=S)n(-c3ccccc3)c2=O)c1` [5e, 6-Hydroxy-N-(3-methoxyphenethyl)-4-oxo-1,3-diphenyl-2-thioxo-1,2,3,4-tetrahydropyrimidine-5-carboxamide], in data set [3], the kinetic solubility at 24 h is 122 µM (≈ 57.8 µg/mL). For the same molecule, the IC50 in the data set on DU145 cells [4] (DU145 prostate cancer cells) is 3.3 ± 2.5 µM; with DU145 cells [4] (setting [9]), under 5 µM; in the data set with A549 cells [5] (A549 lung adenocarcinoma cells), 3.2 ± 1.2 µM; in the data set on A549 cells [5] (setting [10]), under 5 µM; on human topoIIα, 15.8 ± 3.4 µM; with HeLa cells [6], 3.4 ± 0.1 µM. The IC50 in the data set on HeLa cells [6] (Homo sapiens, HeLa) was under 5 µM.

By IC50 is commonly meant the concentration needed to halve the response being measured. A word on the kinetic solubility: it is the concentration staying in solution when a stock, usually in DMSO, is diluted into the medium.
